Measured values taken from patent US11618746B2, “Inhibitors of APOL1 and methods of using same” (Vertex Pharmaceuticals Incorporated, priority 2018, dated 2023).

molecular target: T1, APOL1 G1 Protein (Homo sapiens, UniProt O14791, I384M/S342G); test: Trypanosoma brucei brucei lysis assay using APOL1 recombinant protein (AlamarBlue viability readout); format: cell-based; conditions: Trypanosoma brucei brucei (Lister 427 VSG 221 bloodstream form) lysis by 0.05 μg/mL recombinant APOL1 G1, 16 hrs
T1 sequence (O14791 28-398 S342G/I384M): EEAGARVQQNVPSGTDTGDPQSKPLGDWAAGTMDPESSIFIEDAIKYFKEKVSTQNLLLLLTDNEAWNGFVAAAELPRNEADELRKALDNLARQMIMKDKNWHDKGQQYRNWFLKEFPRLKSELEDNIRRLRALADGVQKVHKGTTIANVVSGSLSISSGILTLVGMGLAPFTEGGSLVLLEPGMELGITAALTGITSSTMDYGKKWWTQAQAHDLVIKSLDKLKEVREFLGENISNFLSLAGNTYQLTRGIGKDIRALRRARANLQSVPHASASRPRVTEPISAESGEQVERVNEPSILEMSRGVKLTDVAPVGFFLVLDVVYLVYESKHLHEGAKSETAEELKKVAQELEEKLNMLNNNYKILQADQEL
Description: Trypanosoma brucei brucei is a blood stream parasite to which human, gorillas and baboon are immune due to the presence of the APOL1 protein in their HDL particles. The protein is uptaken by the parasite via the TbHpHb receptor located in its flagellar pocket and is bonded by the Hpr protein contained in the HDL particles which triggers the receptor endocytosis by the parasite.
Following endocytosis, the formed vesicle containing the HDL particle matures from early to late endosome, and subsequently to lysosome. The concomitant pH change in the lumen of the vesicle triggers the insertion of the APOL1 protein into the membrane of the late endosome/lysosome and hereby triggers lysosomal membrane premeabilisation and as a further downstream event, trypanosome lysis. Trypanosoma brucei brucei is sensitive to lysis by all three APOL1 variants (G0, G1, and G2).
The Trypanosoma brucei brucei lysis assay is a lysis assay of the parasite using recombinant APOL1 protein variant followed by a fluorescent detection method of viability by the addition of AlamarBlue reagent to the assay well, a general metabolic redox indicator (AlamarBlue assay).
Briefly, the AlamarBlue active compound, the resazurin, a blue, water soluble, non-toxic and cell permeable molecule, which can be followed by absorbance, is reduced by various metabolic pathways into resorufin, a red compound which can be followed by either absorbance or fluorescence. The assay allows the calculation of the percent viability (percent of living Trypanosomes remaining in each well) at the end of a lysis relative to the untreated condition by interpolation of fluorescent values (FLU) on a standard curve with a known amount of seeded trypanosome/well.
Trypanosoma brucei brucei (ATCC, Cat. No. PRA-382) • Lister 427 VSG 221 bloodstream form.
Thaw/Expansion Media (ATCC Medium 2834 Modified HMI-9 Medium)
Equipment • E1-Clip Tip pipette 12 channel adjustable 2-125 μL, Cat. No. 4672070BT • ThermoFisher MultiDrop 384, Cat. No. 5840300 • Multidrop • Agilent Bravo, Cat. No. G5409A • Bravo • SpectraMax M5
Trypanosoma brucei brucei Culture
Step 2, Day 4 • Centrifuge at 800×g for 5 minutes at room temperature. • Resuspend in 1 mL media. • Make a 1:25 fold dilution (10 μL/240 μL media). • Count on a hemocytometer (after adding parasites). • Let sit for 1-2 minutes for the parasites to settle. • Count should be approximately 100 viable motile parasites/16 grid or approximately 25×10^6 parasites/flask. • Passage the parasites by adding 1×10^6 parasites/T75 flask in 20 mL media. • Passage the parasites by adding 2.33×10^6 parasites/T175 flask in 46.6 mL media. • For every T75 flask should make enough for approximately 1.5×384 well assay plates. • For every T175 flask should make enough for approximately 3.8×384 well assay plates.
Step 3. Day 6 • Centrifuge at 800×g for 5 minutes. • Resuspend in 3 mL assay media (No phenol red, no FBS) per 75 starting flask. • Resuspend in 7 mL assay media (No phenol red, no FBS) per 175 flask • Make a 1:25 fold dilution. • Count by hemocytometer. • Every T75 flask set up should have approximately 75×10^6 parasites/flask (verify doubling time=8.7 hrs 1 hr). • Every T175 flask set up should have approximately 175×10^6 parasites/flask (verify doubling time=8.7 hrs±1 hr). • Require 46×10^6 parasites per 384 well plate (at 120,000 parasites per well).
Step 2, Day 2 • Centrifuge at 800×g for 5 minutes at room temperature. • Resuspend in 1 mL media. • Make a 1:25 fold dilution (10 L/240 μL media). • Let sit for 1-2 minutes for the parasites to settle. • Count should be approximately 100 viable motile parasites/16 grid or approximately 8×10^6 parasites per flask. • Passage the parasites by adding 1.25×10^6 parasites per T75 flask in 20 mL media. • For every T75 flask set up should have approximately 1.5×384 well assay plates. • For every T175 flask setup should have approximately 3.8×384 well assay plates. […]

Compound	IC50
O=C(CCc1c(-c2ccc(F)cc2)[nH]c2c(F)cc(F)cc12)N[C@@H]1C(=O)NC[C@@H]1O [Compound 1, 3-[5,7-difluoro-2-(4-fluorophenyl)-1H-indol-3-yl]-N-[(3S,4S)-4-hydroxy-2-oxo-pyrrolidin-3-yl]propanamide]	< 0.25 µM
O=C(CCc1c(-c2ccc(F)cc2)[nH]c2c(F)cc(F)cc12)N[C@@H]1C(=O)NC[C@H]1O [Compound 2, 3-[5,7-difluoro-2-(4-fluorophenyl)-1H-indol-3-yl]-N-[(3S,4R)-4-hydroxy-2-oxo-pyrrolidin-3-yl]propanamide]	< 0.25 µM
[2H]C([2H])(C(=O)N[C@@H]1C(=O)NC[C@H]1O)C([2H])([2H])c1c(-c2ccc(F)cc2)[nH]c2c(F)cc(F)cc12 [Compound 88, 2,2,3,3-tetradeutero-3-[5,7-difluoro-2-(4-fluorophenyl)-1H-indol-3-yl]-N-[(3S,4R)-4-hydroxy-2-oxo-pyrrolidin-3-yl]propanamide]	< 0.25 µM
[2H]C(C(=O)N[C@@H]1C(=O)NC[C@H]1O)C([2H])c1c(-c2ccc(F)cc2)[nH]c2c(F)cc(F)cc12 (stereo partly drawn) [Compound 89, 2,3-dideuterio-3-[5,7-difluoro-2-(4-fluorophenyl)-1H-indol-3-yl]-N-[(3S,4R)-4-hydroxy-2-oxo-pyrrolidin-3-yl]propanamide]	< 0.25 µM
